Measured values reported in patent publication US6812250B2, “Carboxamide-substituted phenylurea derivatives, process for their preparation and their use as medicaments” (Aventis Pharma Deutschland GmbH, priority 2001, dated 2004).

Molecular target: T1, human glycogen phosphorylase a (Homo sapiens, UniProt P06737)
T1 sequence (P06737 1-847): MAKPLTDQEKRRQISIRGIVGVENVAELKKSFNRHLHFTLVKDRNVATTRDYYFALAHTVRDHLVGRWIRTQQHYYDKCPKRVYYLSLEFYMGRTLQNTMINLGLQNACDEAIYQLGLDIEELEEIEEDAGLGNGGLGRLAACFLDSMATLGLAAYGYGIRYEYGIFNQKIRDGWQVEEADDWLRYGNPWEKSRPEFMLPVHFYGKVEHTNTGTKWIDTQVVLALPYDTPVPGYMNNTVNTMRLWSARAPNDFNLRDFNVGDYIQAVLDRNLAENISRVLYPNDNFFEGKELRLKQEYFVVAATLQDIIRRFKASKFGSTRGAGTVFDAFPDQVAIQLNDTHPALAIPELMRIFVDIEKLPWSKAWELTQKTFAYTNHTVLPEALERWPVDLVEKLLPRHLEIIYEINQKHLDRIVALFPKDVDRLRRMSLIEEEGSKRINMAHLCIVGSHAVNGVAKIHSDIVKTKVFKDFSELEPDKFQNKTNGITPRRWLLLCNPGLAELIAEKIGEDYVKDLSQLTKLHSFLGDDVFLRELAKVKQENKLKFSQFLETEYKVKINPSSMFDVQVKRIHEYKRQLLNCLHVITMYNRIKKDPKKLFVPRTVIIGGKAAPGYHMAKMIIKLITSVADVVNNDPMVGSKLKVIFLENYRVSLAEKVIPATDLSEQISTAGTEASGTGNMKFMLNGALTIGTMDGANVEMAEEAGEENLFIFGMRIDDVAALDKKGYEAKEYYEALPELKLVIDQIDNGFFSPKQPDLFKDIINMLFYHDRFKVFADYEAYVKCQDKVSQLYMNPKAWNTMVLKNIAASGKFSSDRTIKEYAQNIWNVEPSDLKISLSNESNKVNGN
Assay: Glycogen phosphorylase a activity assay
Assay type: biochemical
Settings: 10 μM test substance; GPa activity measured in the reverse direction (glycogen synthesis from glucose 1-phosphate, liberated inorganic phosphate, absorption at 820 nm); in vitro
Protocol: Glycogen Phosphorylase a Activity Assay
The effect of compounds on the activity of the active form of glycogen phosphorylase (GPa) was measured in the reverse direction by following the synthesis of glycogen from glucose 1-phosphate by determining the liberation of inorganic phosphate. All the reactions were carried out as duplicate determinations in microtiter plates with 96 wells (Half Area Plates, Costar No 3696), measuring the change in absorption owing to the formation of the reaction product at the wavelength specified hereinafter in a Multiskan Ascent Elisa Reader (Lab Systems, Finland). […] The baseline glycogen phosphorylase a activity in the absence of test substance was determined by adding 10 μl of buffer solution T (0.1% DMSO). The mixture was incubated at room temperature for 40 minutes, and the liberated inorganic phosphate was measured by the general method of Drueckes et al. (Drueckes P, Schinzel R, Palm D, Anal Biochem 1995 Sep. 1;230(1):173-177) with the following modifications: 50 μl of a stop solution of 7.3 mM ammonium molybdate, 10.9 mM zinc acetate, 3.6% ascorbic acid, 0.9% SDS are added to 50 μl of the enzyme mixture. After incubation at 45° C. for 60 minutes, the absorption at 820 nm was measured. […]

inhibition at 10 µM: 87%
SMILES: CCOC(=O)N1CCC(NC(=O)c2ccc(Cl)c(NC(=O)NC(=O)c3ccccc3Cl)c2)CC1 [Example 1, Ethyl 4-{4-chloro-3-[3-(2-chlorobenzoyl)ureido]benzoylamino}piperidine-1-carboxylate]
